Earlier results as cited in US20240277756A1 (NACAMED AS, priority 2021, published 2024).

Tests used:
[1] = oral
[2] = calculated log P values from Foye's Principles of Medicinal Chemistry, Seventh Edition (2011)

Structure (SMILES)	absolute bioavailability (in words) [1]	log P [2]
C[C@@H]1[C@H](O)[C@@H](C)/C=C/C=C/C=C/C=C/C=C/C=C/C=C/[C@H](O[C@@H]2O[C@H](C)[C@@H](O)[C@H](N)[C@@H]2O)C[C@@H]2O[C@](O)(C[C@@H](O)C[C@@H](O)[C@H](O)CC[C@@H](O)C[C@@H](O)CC(=O)O[C@H]1C)C[C@H](O)[C@H]2C(=O)O [amphotericin B]	very low	–
CCCc1nc(C)c2c(=O)nc(-c3cc(S(=O)(=O)N4CCN(CC)CC4)ccc3OCC)[nH]n12 [valdanafil]	–	3.64
